Patent US20260240839A1, “Pharmaceutical composition of tetramethylpyrazine nitrone for injection and a method for manufacture thereof” (GUANGZHOU MAGPIE PHARMACEUTICALS CO., LTD., priority 2022, published 2026)

Experiment: Solution stability of tetramethylpyrazine nitrone in different solvents at 25° C.
Format: physicochemical
Details: for Total impurities / Content: 25° C.
Procedure: Here, “NA” indicates not measured. “Total impurities” at 0 hour refer to that detected when API of tetramethylpyrazine nitrone is just prepared into a solution.
In 0.1 M HCl, the stability of tetramethylpyrazine nitrone compounds is low, and they begin to degrade as soon as they form a solution. After 3 hours, they completely degrade, and the total content of related substances reaches 100%.

## Cc1nc(C)c(/C=[N+](\[O-])C(C)(C)C)nc1C [tetramethylpyrazine nitrone]
0.1M HCl, 0 h
  Total impurities: 59.28%
0.1M HCl, 3 h
  Content: 0%
  Total impurities: 100%
0.1M HCl, 24 h
  Content: 0%
  Total impurities: 100%
0.1M NaOH, 0 h
  Total impurities: 17.78%
0.1M NaOH, 3 h
  Content: 81.8%
  Total impurities: 31.38%
0.1M NaOH, 24 h
  Content: 56.54%
  Total impurities: 49.23%
Pure water, 0 h
  Content: 100%
  Total impurities: 0.27%
Pure water, 3 h
  Content: 99.71%
  Total impurities: 0.39%
Pure water, 24 h
  Content: 98.54%
  Total impurities: 1.16%
Buffer solutions ranging from pH 6.0 to pH 7.4 at 25° C.
  Stability in solution: relatively stable
pH 4.5 Acetate buffer, 0 h
  Total impurities: 8.36%
pH 4.5 Acetate buffer, 3 h
  Content: 83.64%
  Total impurities: 23.6%
pH 4.5 Acetate buffer, 24 h
  Content: 60.56%
  Total impurities: 44.44%
pH 6.0 phosphate buffer, 0 h
  Content: 100%
  Total impurities: 0.33%
pH 6.0 phosphate buffer, 3 h
  Content: 98.39%
  Total impurities: 0.44%
pH 6.0 phosphate buffer, 6 h
  Content: 98.65%
  Total impurities: 0.9%
pH 6.0 phosphate buffer, 24 h
  Content: 96.62%
  Total impurities: 2.19%
pH 6.4 Phosphate buffer, 0 h
  Content: 100%
  Total impurities: 0.31%
pH 6.4 Phosphate buffer, 3 h
  Content: 98.85%
  Total impurities: 0.4%
pH 6.4 Phosphate buffer, 24 h
  Content: 97.78%
  Total impurities: 0.93%
pH 7.4 Phosphate buffer, 0 h
  Content: 100%
  Total impurities: 0.47%
pH 7.4 Phosphate buffer, 3 h
  Content: 100.83%
  Total impurities: 0.39%
pH 7.4 Phosphate buffer, 24 h
  Content: 99.92%
  Total impurities: 1%
Solutions with a pH lower than 6.0
  Stability in solution: low
